# How the values were obtained:
# [1] = metabolic stability in human liver microsomes; assay type: in vitro ADME; settings: estimated maximum oral bioavailability from human liver microsome incubation; 0.3 μM, 0.5 mg/ml protein, 37° C., 60 min
# Description: The metabolic stability of test substances was determined by incubations in a suspension with human liver microsomes adjusted to a protein content of 0.5 mg/ml, at a concentration of 0.3 μM. The incubation volume was 3.03 ml, where 2.4 ml of a microsome suspension in phosphate buffer at pH 7.4 (sodium phosphate buffer 100 mM (NaH2PO4×H2O+Na2HPO4×2H2O) were initially charged, which were activated by addition of 0.6 ml of a cofactor mix (consisting of 1.2 mg of NADP, 3 IU of glucose 6-phosphate dehydrogenase, 14.6 mg of glucose 6-phosphate and 4.9 mg of MgCl2 in phosphate buffer, pH 7.4). The assay was started by addition of 30 μL of a test substance stock solution, where the composition of the stock solution was such that the solvent concentrations during the incubation were <0.2% for DMSO and <1% for methanol. The incubations were carried out at an incubation temperature of 37° C. over a period of 60 minutes, during which time the microsomes were kept in a homogeneous suspension by continuous stirring (Tec Control Shaker RS 485 at 300 rpm). At 6 different points in time (2, 8, 16, 30, 45 & 60 min), aliquots of in each case 250 μl were removed and immediately added to the same volume of ice-cold methanol and covered.
# The decrease in concentrations over time were used to determine the half-life of the test substance in the microsomal incubation mixture described above, which in turn was used to calculate the “intrinsic clearance”, the maximum liver microsome rate for the metabolic elimination of the test substance. This “intrinsic clearance” for its part can be used together with various physiological parameters to estimate the maximum metabolic clearance in man, where the principle mentioned above is only capable of representing phase I metabolic reactions (typically: oxidoreductive reactions of Zytochrom P450 enzymes or flavin monooxigenase, and also hydrolytic reactions of esterases and amidases). Physiological parameters are: human liver blood flow: 1.3 l/kg/h; specific liver weight (per kg of body weight): 21 g/kg; microsomal protein content: 40 mg/g of liver. Furthermore, assuming that (i) the resorption of the test substance in humans is 100%, and (ii) the estimated metabolic clearance can be calculated as first pass, a maximum oral bioavailability (Fmax) was estimated.
# Formulae & brief illustrations: CL intrinsic-apparent [in ml/(min*mg of protein)]: reflects the elimination constant kel (in min-1) of the test substance in the incubation mixture, divided by the microsomal protein content ([…]). CL intrinsic [in l(h*kg)]: maximum capability of the liver (microsomes) for metabolic elimination of the test substance, unless the liver blood flow is the limiting factor (kel*liver weight)/liver proportion (microsomal content) in the incubation. CL blood-well stirred [in l/(h*kg)]: estimated blood clearance (via Phase 1 metabolism): (QH*CL intrinsic)/(QH+CL intrinsic). Fmax [in %]: maximum bioavailability after oral administration of the test substance: (1-CL blood-well stirred/QH)*100.
# [2] = tested on: uterus growth in rats with simultaneous administration of oestradiol benzoate (EB); experiment: uterus growth test in infant rats, p.o. (test for antioestrogen action); assay type: in vivo, rat; settings: inhibition of uterus growth relative to EB control; infant female rats; 0.5 μg EB/0.1 ml s.c. plus test compound p.o. in the range of 0.03 mg/kg body weight, once daily for three days
# Description: To examine the efficacy of the compounds according to the invention, in vivo tests with infant rats were carried out. To this end, the growth of the uterus with peroral administration (p.o.) of the pharmaceutical was examined (test for antioestrogen action).
# The principle of this method is to investigate the effect of an administration of compounds having antioestrogen action with simultaneous administration of oestrogens. In rodents, the administration of oestrogens results in an increased weight of the uterus (both by proliferation and by hydropexia). This growth can be inhibited in a dosage-related manner by simultaneous administration of compounds with antioestrogen action.
# For the tests, infant female rats having a weight of 35-45 g were examined at the start of the experiment. Five to six animals per dose were tested. For the p.o. administration, the substances were dissolved in one part of ethanol (E) and made up with nine parts of peanut oil (PO). For acclimatization, the young rats just dropped by the mothers were delivered one day before the start of the treatment and immediately supplied with food—right in the cage. For three days, the animals were then treated in combination with 0.5 μg of oestradiol benzoate (EB) once per day. EB was always administrated subcutaneously (s.c.), whereas the test substance was administered p.o. 24 hours after the last administration, the animals were weighed and killed, and the uteri were removed. The moist weights (less contents) of the prepared uteri were determined. The following control studies were carried out: for a negative control, 0.2 ml of an E/PO mixture was administered per animal and day. […]
# For each group, the means with standard deviation (X±SD) and the significance of the differences to the control group (EB) of the relative organ weights (mg/100 g of body weight) were determined in the Dunnett test (p<0.05). The inhibition (in %) relative to the EB control was determined using a calculation programme. The relative efficacy of the test substances was calculated by covariance and regression analysis.
SMILES,Fmax (micros.) [%] [1] [%],Inhibition [%] [2]
"CN(CCCCCCCC(F)(F)C(F)(F)F)CCCCCC1Cc2cc(O)ccc2C2[C@@H]1C1CC[C@@](C)(O)[C@@]1(C)C[C@@H]2F (stereo partly drawn) [Example 1, [5-(11β-Fluoro-3,17α-dihydroxy-17β-methyloestra-1,3,5(10)-trien-7α-yl)pentyl](methyl)(8,8,9,9,9-pentafluorononyl)amine]",39,42-59%
"C[C@]12C[C@H](F)C3c4ccc(O)cc4CC(CCCCCN4CCC[C@H]4CCCCCCC(F)(F)C(F)(F)F)[C@H]3C1CC[C@@]2(C)O (stereo partly drawn) [Example 2, 11β-Fluoro-17β-methyl-7α-[5-[(2R)-2-(7,7,8,8,8-pentafluorooctyl)-1-pyrrolidinyl]pentyl]-oestra-1,3,5(10)-triene-3,17α-diol]",36,70%
"C[C@]12C[C@H](F)C3c4ccc(O)cc4CC(CCCCCN4CCC[C@H]4CCCCCC(F)(F)C(F)(F)F)[C@H]3C1CC[C@@]2(C)O (stereo partly drawn) [Example 3, 11β-Fluoro-17β-methyl-7α-[5-[(2R)-2-(6,6,7,7,7-pentafluoroheptyl)-1-pyrrolidinyl]pentyl]oestra-1,3,5(10)-triene-3,17α-diol]",40,40%
"CN(CCCCCCCC(F)(F)C(F)(F)F)CCCCCC1Cc2c(ccc(O)c2Cl)C2[C@@H]1C1CC[C@@](C)(O)[C@@]1(C)C[C@@H]2F (stereo partly drawn) [Example 4, 4-Chloro-11β-fluoro-17β-methyl-7α-[5-[methyl(8,8,9,9,9-pentafluorononyl)amino]pentyl]-oestra-1,3,5(10)-triene-3,17α-diol]",39,
"CN(CCCCCCCC(F)(F)C(F)(F)F)CCCCCC1Cc2c(ccc(O)c2Br)C2[C@@H]1C1CC[C@@](C)(O)[C@@]1(C)C[C@@H]2F (stereo partly drawn) [Example 5, 4-Bromo-11β-fluoro-17β-methyl-7α-[5-[methyl(8,8,9,9,9-pentafluorononyl)amino]pentyl]oestra-1,3,5(10)-triene-3,17α-diol]",55,
"C[C@]12C[C@H](F)C3c4ccc(O)c(Br)c4CC(CCCCCN4CCC[C@H]4CCCCCCC(F)(F)C(F)(F)F)[C@H]3C1CC[C@@]2(C)O (stereo partly drawn) [Example 6, 4-Bromo-11β-fluoro-17β-methyl-7α-[5-[(2R)-2-(7,7,8,8,8-pentafluorooctyl)-1-pyrrolidinyl]pentyl]oestra-1,3,5(10)-triene-3,17α-diol]",34,
"C[C@]12C[C@H](F)C3c4ccc(O)c(Cl)c4CC(CCCCCN4CCC[C@H]4CCCCCCC(F)(F)C(F)(F)F)[C@H]3C1CC[C@@]2(C)O (stereo partly drawn) [Example 7, 4-Chloro-11β-fluoro-17β-methyl-7α-[5-[(2R)-2-(7,7,8,8,8-pentafluorooctyl)-1-pyrrolidinyl]pentyl]oestra-1,3,5(10)-triene-3,17α-diol]",47,
"C[C@]12C[C@H](F)C3c4ccc(O)c(Br)c4CC(CCCCCN4CCC[C@H]4CCCCCC(F)(F)C(F)(F)F)[C@H]3C1CC[C@@]2(C)O (stereo partly drawn) [Example 8, 4-Bromo-11β-fluoro-17β-methyl-7α-[5-[(2R)-2-(6,6,7,7,7-pentafluoroheptyl)-1-pyrrolidinyl]pentyl]oestra-1,3,5(10)-triene-3,17α-diol]",48,
"C[C@]12C[C@H](F)C3c4ccc(O)c(Cl)c4CC(CCCCCN4CCC[C@H]4CCCCCC(F)(F)C(F)(F)F)[C@H]3C1CC[C@@]2(C)O (stereo partly drawn) [Example 9, 4-Chloro-11β-fluoro-17β-methyl-7α-[5-[(2R)-2-(6,6,7,7,7-pentafluoroheptyl)-1-pyrrolidinyl]pentyl]oestra-1,3,5(10)-triene-3,17α-diol]",42,
"C[C@]12C[C@H](F)C3c4cc(Cl)c(O)c(Cl)c4CC(CCCCCN4CCC[C@H]4CCCCCCC(F)(F)C(F)(F)F)[C@H]3C1CC[C@@]2(C)O (stereo partly drawn) [Example 10, 2,4-Dichloro-11β-fluoro-17β-methyl-7α-[5-[(2R)-2-(7,7,8,8,8-pentafluorooctyl)-1-pyrrolidinyl]pentyl]oestra-1,3,5(10)-triene-3,17α-diol]",34,
"CN(CCCCCCCC(F)(F)C(F)(F)F)CCCCCC1Cc2cc(O)ccc2C2[C@@H]1C1CC[C@](C)(O)[C@@]1(C)C[C@@H]2F (stereo partly drawn) [Example C1, 11β-Fluoro-17α-methyl-7α-[5-[methyl(8,8,9,9,9-pentafluorononyl)amino]pentyl]oestra-1,3,5(10)-triene-3,17β-diol, reference compound]",9,
"C[C@]1(O)CCC2[C@@H]3C(CCCCCN4CCC[C@H]4CCCCCCC(F)(F)C(F)(F)F)Cc4cc(O)ccc4C3[C@@H](F)C[C@@]21C (stereo partly drawn) [Example C2, 11β-Fluoro-17α-methyl-7α-[5-[(2R)-2-(7,7,8,8,8-pentafluorooctyl)-1-pyrrolidinyl]pentyl]-oestra-1,3,5(10)-triene-3,17β-diol, reference compound]",9,
"C[C@]1(O)CCC2[C@@H]3C(CCCCCN4CCC[C@H]4CCCCCC(F)(F)C(F)(F)F)Cc4cc(O)ccc4C3[C@@H](F)C[C@@]21C (stereo partly drawn) [Example C3, 11β-Fluoro-17α-methyl-7α-[5-[(2R)-2-(6,6,7,7,7-pentafluoroheptyl)-1-pyrrolidinyl]pentyl]oestra-1,3,5(10)-triene-3,17β-diol, reference compound]",8,

# — US20120157421A1, “17Beta-Alkyl-17Alpha-oxy-estratrienes” (BAYER PHARMA AKTIENGESELLSCHAFT, priority 2009, published 2012)
